Laboratory results reported in US9962364B2, “Wound healing accelerator” (priority 2012, dated 2018).

System: mouse-derived 3T3-L1 fibroblasts
Experiment: Cell growth of mouse fibroblasts by MTT assay after treating for one minute (Tests 1, 2, 4)
Assay type: cell-based
Settings: treatment for 1 minute, then 24 hours of culture, versus physiological saline control
Description: Specifically, after 20 hours of culture, 10 μl of MTT reagent (from Trevigen Inc.) was added to each well and the cells were further cultured for 4 hours under conditions of 37° C. and 5% CO2. After the culture, 100 μl of the Detergent Reagent (Trevigen Inc.) was each added and the cells were left in the dark overnight at room temperature. The absorbance at 595 nm was then determined using a microplate reader (FilterMaxTM F5 Multi-Mode Microplate Reader, Molecular Devices, LLC.). […] The absorbance of the control group in Test 1 was 0.289±0.016. Gallic acid (from Tokyo Chemical Industry Co., Ltd.), caffeic acid (from Tokyo Chemical Industry Co., Ltd.), (+)-catechin (from Tokyo Chemical Industry Co., Ltd.) and chlorogenic acid (from Sigma-Aldrich Co. LLC.) were assayed. […] The absorbance of the control group in Test 2 was 0.196±0.011. Green tea extract (from MARUZEN PHARMACEUTICALS CO., LTD.) was assayed. […] The absorbance of the control group in Test 4 was 0.276±0.010.

For `O=C(O)c1cc(O)c(O)c(O)c1` [gallic acid], the “growth of fibroblasts (extent of cell growth by MTT assay)” value was “no growth of fibroblasts was observed”.
